The values below come from patent publication EP0039388A2, “Diagnostic method for the determination of the liver function” (Röhm Pharma GmbH, priority 1980, dated 1981).

Holding throughout (type): in vivo, Menschen
Data set [1] can be described thus: Ratio of TA to OH-TA-Ester in plasma and/or urine after oral administration of triamterene (liver function test). The following applies: for Verhältnis des OH-TA-Esters zu TA: printed as (x):1. From the text: Es wurde gefunden, daß sich Einschränkungen der Leberfunktion mit sehr geringem Aufwand und mit großer diagnostischer und analytischer Sicherheit nachweisen lassen, wenn man 2,4,7-Triamino-6-phenylpteridin (Triamteren = TA) dem Patienten oral verabreicht und in geeignetem zeitlichen Abstand das Verhältnis TA zu OH-TA-Ester im Plasma und/oder im Urin des Patienten bestimmt. Bei normaler Leberfunktion beträgt das Verhältnis TA zu OH-TA-Ester 1:3 bis 1:10. […] Man findet demnach je nach Einschränkung der Leberfunktion mehr natives TA als OH-TA-Ester, was als eine direkte Auswirkung der gestörten Funktion der Leber zu metabolischer Umwandlung von körperfremden Stoffen im Organismus und damit als Indikator für die Leberfunktion überhaupt gewertet werden kann.
Die Verabreichung des Triamteren zur erfindungsgemäßen Bestimmung der Leberfunktionseinschränkung geschieht oral. Bei der Herstellung der Verabreichungsformen (Kapseln, Tabletten etc.) und der Verabreichung selbst, kann von den Erfahrungen mit Triamteren als Therapeutikum ausgegangen werden. Die zur Durchführung des erfindungsgemäßen diagnostischen Verfahrens benötigten Mengen an Triamteren können innerhalb gewisser Grenzen schwanken, beispielsweise zwischen 50 und 300 mg, vorzugsweise bis 100 mg. Zur Einhaltung standardisierter Bedingungen kann es zweckmäßig sein, gleichbleibende Quantitäten an Triamteren zu verabreichen. Dabei kann vorteilhaft von bereits auf dem Markt befindlichen Handelsformen (z. B. Kapseln mit 50 mg Triamteren Jatropur^R) Gebrauch gemacht werden.
(§1) Bei dem Test wurde darauf geachtet, daß die Versuchspersonen der gleichen Altersgruppe und dem gleichen Geschlecht angehörten und eine annähernd gleiche Nierenfunktion vorlag. Während der Versuchsperiode waren sie stationär aufgenommen und unterlagen denselben Ernährungsbedingungen. Außer den unumgänglich notwendigen, wurden alle anderen Medikamente, insbesondere Diuretika vor Versuchsbeginn abgesetzt.
Die Plasmahalbwertszeiten wurden nach der Formel t50 % = [formula] berechnet, die Flächen unter den Kurven konnten mit Hilfe der Trapezregel errechnet werden. […]

Data set [2] is described as follows: Plasma half-lives of TA and OH-TA-Ester after oral triamterene. To be noted: for half-life: human, plasma, po, read-out: Plasmahalbwertszeiten (converted).
Description: as §1
Die Plasmahalbwertszeiten wurden nach der Formel t50 % = [formula] berechnet, die Flächen unter den Kurven konnten mit Hilfe der Trapezregel errechnet werden.
Die Plasmaproben werden mit dem doppelten Volumen Methanol verdünnt, das ausfallende Protein ausgefällt. Vom Überstand wird ein definierter Anteil auf Kieselgel-Platten (z. B. Kieselgel-60-Fertigplatten "Merck") ohne Fluoresz.enzindi- kator aufgetragen. Anschließend wird mit dem Fließmittel Essigsäureethylester/Methanol/Ammoniak 25 %ig (60 + 30 + 10) bei Kammersättigung chromatographiert. Danach werden die Platten getrocknet und die Substanzen fluoreszenzspektroskopisch gemessen.

Data set [3] in a line: Urinary excretion of TA and OH-TA-Ester after oral triamterene.
Description: as §1
Die Durchführung des erfindungsgemäßen diagnostischen Verfahrens kann ebenfalls mit dem Urin der Patienten erfolgen. Während einer Versuchsdauer von 5 Tagen konnte TA und der OH-TA-Ester nachgewiesen werden.
Analog kann auch die Konzentration von TA und OH-TA-Ester im Urin bestimmt werden.

Entries after “also recorded” stand apart in the source; their conditions may differ. Read-outs that look alike come from different tables or passages of the source.

As for `Nc1nc(N)c2nc(-c3ccc(OS(=O)(=O)O)cc3)c(N)nc2n1` [OH-TA-Ester], the “Verhältnis des OH-TA-Esters zu TA” value in data set [1] (Lebergesunde) is 4-10; in data set [1] (Leberzirrhotiker, ratio reversed in one cirrhotic), 1-3,2. Also, the “Konzentration des OH-TA-Esters in Plasma höher als die der nativen Substanz Triamteren (TA)” value in data set [1] (subjects with healthy liver, plasma, fold over TA) was “vier- bis zwölffache”. Besides, the “Plasmahalbwertszeiten, change in Leberzirrhotiker versus Lebergesunde” value in data set [2] (Leberzirrhotiker compared with Lebergesunde) was “auf das Doppelte verlängert; also recorded: deutlich erhöht, beispielsweise verdoppelt”. For the same compound, the “Ausscheidung im Harn beendet” value in data set [3] (Lebergesunde, time after which excretion has ended) is 72 Stunden. The “Ausscheidung im Harn nicht völlig abgeschlossen” value in data set [3] (Leberzirrhotiker, excretion still not fully complete at this time) is given as above 5 Tagen. Also, in data set [3] (patients' urine, test duration of 5 days), the “Nachweis im Urin” value is on record as “nachgewiesen”.

Consider `Nc1nc(N)c2nc(-c3ccccc3)c(N)nc2n1` [TA, 2,4,7-Triamino-6-phenylpteridin], for which the half-life in data set [2] (Lebergesunde) was around 5.5 h. In addition, the half-life in data set [2] (Leberzirrhotiker, average) was 11.2 h. Moreover, in data set [3] (in vivo), the “Ausscheidung im Harn beendet” value is listed as 72 Stunden and the “Ausscheidung im Harn nicht völlig abgeschlossen” value is reported as above 5 Tagen.
